Values after ≈ are worked out from the molar mass of the structure shown.
What was measured:
Assay type in all cases: functional
[1] = test system: Malme-3M; test: Growth inhibition of Homo sapiens (human) MALME-3M cells at 10 uM after 48 hr by SRB assay; conditions: read-out: GI
[2] = test system: TK-10; test: Anticancer activity against Homo sapiens (human) TK10 cells after 48 hr by SRB assay; conditions: TK-10, 48 h; for CC50: read-out: LC50 (the source's name)
[3] = test system: M14; test: Anticancer activity against Homo sapiens (human) M14 cells after 48 hr by SRB assay; conditions: M14, 48 h
[4] = test system: SF-539; test: Anticancer activity against Homo sapiens (human) SF539 cells after 48 hr by SRB assay; conditions: SF-539, 48 h; for CC50: read-out: LC50 (the source's name)
[5] = test system: OVCAR-8; test: Anticancer activity against Homo sapiens (human) OVCAR8 cells after 48 hr by SRB assay; conditions: OVCAR-8, 48 h
[6] = test system: UACC-62; test: Growth inhibition of Homo sapiens (human) UACC62 cells at 10 uM after 48 hr by SRB assay; conditions: UACC-62, 48 h, read-out: GI
[7] = test system: RXF 393; test: Anticancer activity against Homo sapiens (human) RXF393 cells after 48 hr by SRB assay; conditions: RXF 393, 48 h
[8] = test system: Escherichia coli; test: Antimicrobial activity against Escherichia coli ATCC 11775 after 48 hr by two-fold serial broth dilution method; conditions: ATCC 11775, 48 h
[9] = test system: RPMI-8226; test: Anticancer activity against Homo sapiens (human) RPMI8226 cells after 48 hr by SRB assay; conditions: RPMI-8226, 48 h; for CC50: read-out: LC50 (the source's name)
[10] = test system: EKVX; test: Anticancer activity against Homo sapiens (human) EKVX cells after 48 hr by SRB assay; conditions: for CC50: read-out: LC50 (the source's name)
[11] = test system: HCT-15; test: Anticancer activity against Homo sapiens (human) HCT15 cells after 48 hr by SRB assay; conditions: HCT-15, 48 h; for CC50: read-out: LC50 (the source's name)
[12] = test system: Staphylococcus aureus; test: Antimicrobial activity against Staphylococcus aureus DSM 1104 after 48 hr by two-fold serial broth dilution method; conditions: DSM 1104, 48 h
[13] = test system: NCI/ADR-RES; test: Anticancer activity against Homo sapiens (human) NCI/ADR-RES cells after 48 hr by SRB assay
[14] = test system: M14; test: Growth inhibition of Homo sapiens (human) M14 cells at 10 uM after 48 hr by SRB assay; conditions: M14, 48 h, read-out: GI
[15] = test system: SN12C; test: Growth inhibition of Homo sapiens (human) SN12C cells at 10 uM after 48 hr by SRB assay; conditions: read-out: GI
[16] = test system: COLO 205; test: Anticancer activity against Homo sapiens (human) COLO205 cells after 48 hr by SRB assay; conditions: COLO 205, 48 h; for CC50: read-out: LC50 (the source's name)
[17] = test system: 786-0; test: Growth inhibition of Homo sapiens (human) 786-0 cells at 10 uM after 48 hr by SRB assay; conditions: 786-0, 48 h, read-out: GI
[18] = test system: U-251; test: Anticancer activity against Homo sapiens (human) U251 cells after 48 hr by SRB assay; conditions: U-251, 48 h; for CC50: read-out: LC50 (the source's name)
[19] = test system: KM12; test: Growth inhibition of Homo sapiens (human) KM12 cells at 10 uM after 48 hr by SRB assay; conditions: KM12, 48 h, read-out: GI
[20] = test system: HL-60(TB); test: Growth inhibition of Homo sapiens (human) HL-60(TB) cells at 10 uM after 48 hr by SRB assay; conditions: HL-60, 48 h, read-out: GI
[21] = test system: LOX IMVI; test: Anticancer activity against Homo sapiens (human) LOXIMVI cells after 48 hr by SRB assay; conditions: for CC50: read-out: LC50 (the source's name)
[22] = test system: SK-OV-3; test: Anticancer activity against Homo sapiens (human) SKOV3 cells after 48 hr by SRB assay; conditions: SK-OV-3, 48 h
[23] = test system: NCI-H322M; test: Anticancer activity against Homo sapiens (human) NCI-H322M cells after 48 hr by SRB assay; conditions: for CC50: read-out: LC50 (the source's name)
[24] = test system: SW-620; test: Anticancer activity against Homo sapiens (human) SW620 cells after 48 hr by SRB assay; conditions: SW-620, 48 h; for CC50: read-out: LC50 (the source's name)
[25] = test system: PC-3; test: Growth inhibition of Homo sapiens (human) PC3 cells at 10 uM after 48 hr by SRB assay; conditions: PC-3, 48 h, read-out: GI
[26] = test system: OVCAR-5; test: Anticancer activity against Homo sapiens (human) OVCAR5 cells after 48 hr by SRB assay; conditions: OVCAR-5, 48 h; for CC50: read-out: LC50 (the source's name)
[27] = test system: SN12C; test: Anticancer activity against Homo sapiens (human) SN12C cells after 48 hr by SRB assay
[28] = test system: PC-3; test: Anticancer activity against Homo sapiens (human) PC3 cells after 48 hr by SRB assay; conditions: PC-3, 48 h; for CC50: read-out: LC50 (the source's name)
[29] = test system: HT-29; test: Growth inhibition of Homo sapiens (human) HT-29 cells at 10 uM after 48 hr by SRB assay; conditions: HT-29, 48 h, read-out: GI
[30] = test system: BT-549; test: Growth inhibition of Homo sapiens (human) BT549 cells at 10 uM after 48 hr by SRB assay; conditions: BT-549, 48 h, read-out: GI
[31] = test system: SF-295; test: Growth inhibition of Homo sapiens (human) SF295 cells at 10 uM after 48 hr by SRB assay; conditions: SF-295, 48 h, read-out: GI
[32] = test system: T47D; test: Growth inhibition of Homo sapiens (human) T47D cells at 10 uM after 48 hr by SRB assay; conditions: read-out: GI
[33] = test system: Hs-578T; test: Growth inhibition of Homo sapiens (human) Hs 578T cells at 10 uM after 48 hr by SRB assay; conditions: read-out: GI
[34] = test system: HOP-62; test: Growth inhibition of Homo sapiens (human) HOP62 cells at 10 uM after 48 hr by SRB assay; conditions: HOP-62, 48 h, read-out: GI

## COc1ccc(OC)c(/C=C/c2nnc(S)n2-c2ccc(Cl)cc2)c1
[1]
  inhibition of growth at 10 µM: 70.2%
[2]
  GI50: 25.8 µM
  TGI: > 100 µM
  CC50: > 100 µM
[3]
  GI50: 4.24 µM
  LC50: > 100 µM
  TGI: > 100 µM
[4]
  GI50: 4.05 µM
  TGI: 97.9 µM
  CC50: > 100 µM
[5]
  GI50: 28.4 µM
  LC50: > 100 µM
  TGI: > 100 µM
[6]
  inhibition of growth at 10 µM: 57.2%
[7]
  GI50: 3.38 µM
  LC50: > 100 µM
  TGI: 38.7 µM
[8]
  MBC: 50 µg/mL (≈ 134 µM)
  MIC: 50 µg/mL (≈ 134 µM)
[9]
  GI50: 5.22 µM
  TGI: > 100 µM
  CC50: > 100 µM
[10]
  GI50: 30 µM
  TGI: > 100 µM
  CC50: > 100 µM
[11]
  GI50: 4.39 µM
  TGI: > 100 µM
  CC50: > 100 µM
[12]
  MBC: 100 µg/mL (≈ 267 µM)
  MIC: 100 µg/mL (≈ 267 µM)
[13]
  GI50: 3.63 µM
  LC50: > 100 µM
  TGI: > 100 µM
[14]
  inhibition of growth at 10 µM: 69%
[15]
  inhibition of growth at 10 µM: 33.8%
[16]
  GI50: 12.4 µM
  TGI: 68.4 µM
  CC50: > 100 µM
[17]
  inhibition of growth at 10 µM: 41.1%
[18]
  GI50: 6.88 µM
  TGI: > 100 µM
  CC50: > 100 µM
[19]
  inhibition of growth at 10 µM: 59.1%
[20]
  inhibition of growth at 10 µM: 95.7%
[21]
  GI50: 5.02 µM
  TGI: > 100 µM
  CC50: > 100 µM
[22]
  GI50: 9.4 µM
  LC50: > 100 µM
  TGI: > 100 µM
[23]
  GI50: 26.9 µM
  TGI: > 100 µM
  CC50: > 100 µM
[24]
  GI50: 5.09 µM
  TGI: > 100 µM
  CC50: > 100 µM
[25]
  inhibition of growth at 10 µM: 41.4%
[26]
  GI50: 70.3 µM
  TGI: > 100 µM
  CC50: > 100 µM
[27]
  GI50: 6.07 µM
  LC50: > 100 µM
  TGI: > 100 µM
[28]
  GI50: 8.91 µM
  TGI: > 100 µM
  CC50: > 100 µM
[29]
  inhibition of growth at 10 µM: 34.6%
[30]
  inhibition of growth at 10 µM: 32.8%
[31]
  inhibition of growth at 10 µM: 68.8%

## COc1ccc(OC)c(/C=C/c2nnc(Nc3ccc(Cl)cc3)o2)c1
[32]
  inhibition of growth at 10 µM: 105%
[1]
  inhibition of growth at 10 µM: 58.5%
[2]
  GI50: 7.4 µM
  TGI: 83.2 µM
  CC50: > 100 µM
[3]
  GI50: 20.7 µM
  LC50: > 100 µM
  TGI: > 100 µM
[4]
  GI50: 11.8 µM
  TGI: 60.5 µM
  CC50: > 100 µM
[5]
  GI50: 4.91 µM
  LC50: 76.4 µM
  TGI: 21 µM
[7]
  GI50: 2.71 µM
  LC50: 56.1 µM
  TGI: 7.92 µM
[8]
  MBC: 50 µg/mL (≈ 140 µM)
  MIC: 50 µg/mL (≈ 140 µM)
[9]
  GI50: > 100 µM
  TGI: > 100 µM
  CC50: > 100 µM
[10]
  GI50: 40.5 µM
  TGI: > 100 µM
  CC50: > 100 µM
[33]
  inhibition of growth at 10 µM: 93.1%
[11]
  GI50: 34.1 µM
  TGI: > 100 µM
  CC50: > 100 µM
[12]
  MBC: 50 µg/mL (≈ 140 µM)
  MIC: 50 µg/mL (≈ 140 µM)
[13]
  GI50: 7.62 µM
  LC50: > 100 µM
  TGI: 98.1 µM
[15]
  inhibition of growth at 10 µM: 55.1%
[16]
  GI50: 16.6 µM
  TGI: > 100 µM
  CC50: > 100 µM
[17]
  inhibition of growth at 10 µM: 72.1%
[18]
  GI50: 3.81 µM
  TGI: 14.3 µM
  CC50: 47.6 µM
[34]
  inhibition of growth at 10 µM: 64.7%
[21]
  GI50: 7.91 µM
  TGI: > 100 µM
  CC50: > 100 µM
[22]
  GI50: 2.79 µM
  LC50: 60.6 µM
  TGI: 7.85 µM
[23]
  GI50: 30.5 µM
  TGI: > 100 µM
  CC50: > 100 µM
[24]
  GI50: 18.3 µM
  TGI: > 100 µM
  CC50: > 100 µM
[26]
  GI50: 32.5 µM
  TGI: > 100 µM
  CC50: > 100 µM
[27]
  GI50: 4.21 µM
  LC50: > 100 µM
  TGI: > 100 µM
[28]
  GI50: 13.3 µM
  TGI: 76 µM
  CC50: > 100 µM
[31]
  inhibition of growth at 10 µM: 53.1%

— ChEMBL document CHEMBL3046389, “Synthesis and biological evaluation of novel hydroquinone dimethyl ethers as potential anticancer and antimicrobial agents” (2013)
